Assay results published in PubChem BioAssay (NCI).
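Method: 48-hour compound exposure of cells in 96-well plates, five concentrations, linear interpolation of endpoints. GI50 is the concentration that inhibits growth by half. Definition used: TGI = concentration required for complete inhibition of growth.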

Assays:
Assay in all cases: inhibition of tumour cell growth, NCI panel, 48 h
[1] = test system: HCC-2998 colon
[2] = test system: SF-539 CNS
[3] = test system: MDA-MB-435
[4] = test system: HS 578T breast
[5] = test system: HT29 colon
[6] = test system: LOX IMVI melanoma
[7] = test system: MDA-MB-231 breast
[8] = test system: SF-268 CNS
[9] = test system: IGROV1 ovarian
[10] = test system: 786-0 renal
[11] = test system: NCI-H226 lung
[12] = test system: HOP-62 NSCLC
[13] = test system: NCI-H460 lung
[14] = test system: ACHN renal
[15] = test system: SK-OV-3 ovarian
[16] = test system: SNB-19 CNS
[17] = test system: SK-MEL-28 melanoma
[18] = test system: A498 renal
[19] = test system: SK-MEL-2 melanoma
[20] = test system: COLO 205 colon
[21] = test system: RPMI-8226 leukemia
[22] = test system: OVCAR-8 ovarian
[23] = test system: SW-620 colon
[24] = test system: KM12 colon
[25] = test system: RXF 393 renal
[26] = test system: HCT-15 colon
[27] = test system: TK-10 renal
[28] = test system: UACC-62 melanoma
[29] = test system: SNB-75 CNS
[30] = test system: T-47D breast
[31] = test system: OVCAR-5 ovarian
[32] = test system: PC-3 prostate
[33] = test system: OVCAR-4 ovarian
[34] = test system: HOP-92 NSCLC
[35] = test system: CCRF-CEM leukemia
[36] = test system: SN12C renal
[37] = test system: M14 melanoma
[38] = test system: UACC-257 melanoma
[39] = test system: UO-31 renal
[40] = test system: CAKI-1 renal
[41] = test system: A549 NSCLC
[42] = test system: DU-145 prostate
[43] = test system: NCI-H23 lung
[44] = test system: BT-549 breast
[45] = test system: SK-MEL-5 melanoma
[46] = test system: EKVX NSCLC
[47] = test system: NCI-H522 lung
[48] = test system: MOLT-4 leukemia
[49] = test system: U251 CNS
[50] = test system: SF-295 CNS
[51] = test system: OVCAR-3 ovarian
[52] = test system: HCT-116 colon
[53] = test system: NCI/ADR-RES ovarian

C=CC(=O)Nc1cccc(Oc2nc(Nc3ccc(N4CCN(C)CC4)cc3OC)ncc2Cl)c1
GI50 [1]: 1720 nM | TGI [1]: 3.35 µM | GI50 [2]: 1980 nM | TGI [2]: 3.72 µM | GI50 [3]: 1700 nM | TGI [3]: 3.24 µM | GI50 [4]: 1860 nM | TGI [4]: 5.39 µM | GI50 [5]: 2080 nM | TGI [5]: 4.53 µM | GI50 [6]: 1580 nM | TGI [6]: 2990 nM | GI50 [7]: 1940 nM | TGI [7]: 4.12 µM | GI50 [8]: 2370 nM | TGI [8]: 9.24 µM | GI50 [9]: 1290 nM | TGI [9]: 3.56 µM | GI50 [10]: 1470 nM | TGI [10]: 2940 nM | GI50 [11]: 1810 nM | TGI [11]: 5.66 µM | GI50 [12]: 3.01 µM | TGI [12]: 12.1 µM | GI50 [13]: 3.49 µM | TGI [13]: > 34.4 µM | GI50 [14]: 421 nM | TGI [14]: 3.14 µM | GI50 [15]: 342 nM | TGI [15]: 5.33 µM | GI50 [16]: 3.63 µM | TGI [16]: 16.7 µM | GI50 [17]: 2020 nM | TGI [17]: 4.07 µM | GI50 [18]: 1110 nM | TGI [18]: 3.49 µM | GI50 [19]: 2190 nM | TGI [19]: 4.3 µM | GI50 [20]: 2280 nM | TGI [20]: 5.07 µM | GI50 [21]: 1970 nM | TGI [21]: 5.1 µM | GI50 [22]: 2080 nM | TGI [22]: 8.45 µM | GI50 [23]: 1470 nM | TGI [23]: 2960 nM | GI50 [24]: 3.46 µM | TGI [24]: 11.2 µM | GI50 [25]: 1490 nM | TGI [25]: 3.12 µM | GI50 [26]: 2590 nM | TGI [26]: 10.7 µM | GI50 [27]: 513 nM | TGI [27]: 1860 nM | GI50 [28]: 1870 nM | TGI [28]: 3.58 µM | GI50 [29]: 1520 nM | TGI [29]: 3.98 µM | GI50 [30]: 2870 nM | TGI [30]: 15.5 µM | GI50 [31]: 2290 nM | TGI [31]: 13 µM | GI50 [32]: 2190 nM | TGI [32]: 7.03 µM | GI50 [33]: 2360 nM | TGI [33]: > 39.4 µM | GI50 [34]: 743 nM | TGI [34]: 2550 nM | GI50 [35]: 3.17 µM | TGI [35]: > 26.3 µM | GI50 [36]: 1840 nM | TGI [36]: 8.31 µM | GI50 [37]: 1820 nM | TGI [37]: 3.47 µM | GI50 [38]: 1620 nM | TGI [38]: 3.17 µM | GI50 [39]: 1030 nM | TGI [39]: 2320 nM | GI50 [40]: 985 nM | TGI [40]: 2440 nM | GI50 [41]: 1460 nM | TGI [41]: 3.33 µM | GI50 [42]: 1590 nM | TGI [42]: 6.07 µM | GI50 [43]: 3.92 µM | TGI [43]: 23.7 µM | GI50 [44]: 1990 nM | TGI [44]: 4.58 µM | GI50 [45]: 1890 nM | TGI [45]: 3.92 µM | GI50 [46]: 363 nM | TGI [46]: 3.38 µM | GI50 [47]: 308 nM | TGI [47]: 1750 nM | GI50 [48]: 2570 nM | TGI [48]: > 23.4 µM | GI50 [49]: 1490 nM | TGI [49]: 3.03 µM | GI50 [50]: 2210 nM | TGI [50]: 5.81 µM | GI50 [51]: 1700 nM | TGI [51]: 4.44 µM | GI50 [52]: 1640 nM | TGI [52]: 3.06 µM | GI50 [53]: 1880 nM | TGI [53]: 5.69 µM
